The kinase profiling compilation of Christmann-Franck et al. (2016)

Key:
Assay in all cases: KINOMEscan competition binding
Conditions in all cases: compound 10.0 µM
[1] = molecular target: MAP3K12 (human) (UniProt Q12852)
[2] = molecular target: CAMK4 (human) (UniProt Q16566)
[3] = test system: PIK3CA (human), P42336 [E545K]
[4] = molecular target: RPS6KA2 KD1 (human) (UniProt Q15349)
[5] = molecular target: CSNK1G3 (human) (UniProt Q9Y6M4)
[6] = molecular target: MAPK15 (human) (UniProt Q8TD08)
[7] = molecular target: CLK1 (human) (UniProt P49759)
[8] = molecular target: CDK19 (human) (UniProt Q9BWU1)
[9] = molecular target: FES (human) (UniProt P07332)
[10] = molecular target: EPHA4 (human) (UniProt P54764)
[11] = molecular target: PIP5K1A (human) (UniProt Q99755)
[12] = test system: EGFR (human), P00533 [L861Q]
[13] = molecular target: NEK9 (human) (UniProt Q8TD19)
[14] = molecular target: ERBB4 (human) (UniProt Q15303)
[15] = molecular target: PAK7 (human) (UniProt Q9P286)
[16] = molecular target: DMPK (human) (UniProt Q09013)
[17] = molecular target: FGFR4 (human) (UniProt P22455)
[18] = molecular target: IKBKB (human) (UniProt O14920)
[19] = molecular target: NUAK2 (human) (UniProt Q9H093)
[20] = test system: RET (human), P07949 [V804L]
[21] = molecular target: IKBKE (human) (UniProt Q14164)
[22] = molecular target: NEK6 (human) (UniProt Q9HC98)
[23] = molecular target: CDK8 (human) (UniProt P49336)
[24] = molecular target: INSR (human) (UniProt P06213)
[25] = molecular target: BTK (human) (UniProt Q06187)
[26] = molecular target: LATS2 (human) (UniProt Q9NRM7)
[27] = molecular target: MAP2K1 (human) (UniProt Q02750)
[28] = molecular target: MAPK1 (human) (UniProt P28482)
[29] = molecular target: CSNK1D (human) (UniProt P48730)
[30] = molecular target: ULK1 (human) (UniProt O75385)
[31] = molecular target: MAP4K5 (human) (UniProt Q9Y4K4)
[32] = molecular target: MST4 (human) (UniProt Q9P289)
[33] = molecular target: TESK1 (human) (UniProt Q15569)
[34] = molecular target: BLK (human) (UniProt P51451)
[35] = molecular target: PRKACA (human) (UniProt P17612)
[36] = molecular target: PAK2 (human) (UniProt Q13177)
[37] = molecular target: DAPK3 (human) (UniProt O43293)
[38] = molecular target: PRKCE (human) (UniProt Q02156)
[39] = test system: EGFR (human), P00533 [752-759 del]
[40] = molecular target: SYK (human) (UniProt P43405)
[41] = molecular target: MST1R (human) (UniProt Q04912)
[42] = molecular target: MARK4 (human) (UniProt Q96L34)

Sequence of INSR (human) (P06213 whole entry, looked up): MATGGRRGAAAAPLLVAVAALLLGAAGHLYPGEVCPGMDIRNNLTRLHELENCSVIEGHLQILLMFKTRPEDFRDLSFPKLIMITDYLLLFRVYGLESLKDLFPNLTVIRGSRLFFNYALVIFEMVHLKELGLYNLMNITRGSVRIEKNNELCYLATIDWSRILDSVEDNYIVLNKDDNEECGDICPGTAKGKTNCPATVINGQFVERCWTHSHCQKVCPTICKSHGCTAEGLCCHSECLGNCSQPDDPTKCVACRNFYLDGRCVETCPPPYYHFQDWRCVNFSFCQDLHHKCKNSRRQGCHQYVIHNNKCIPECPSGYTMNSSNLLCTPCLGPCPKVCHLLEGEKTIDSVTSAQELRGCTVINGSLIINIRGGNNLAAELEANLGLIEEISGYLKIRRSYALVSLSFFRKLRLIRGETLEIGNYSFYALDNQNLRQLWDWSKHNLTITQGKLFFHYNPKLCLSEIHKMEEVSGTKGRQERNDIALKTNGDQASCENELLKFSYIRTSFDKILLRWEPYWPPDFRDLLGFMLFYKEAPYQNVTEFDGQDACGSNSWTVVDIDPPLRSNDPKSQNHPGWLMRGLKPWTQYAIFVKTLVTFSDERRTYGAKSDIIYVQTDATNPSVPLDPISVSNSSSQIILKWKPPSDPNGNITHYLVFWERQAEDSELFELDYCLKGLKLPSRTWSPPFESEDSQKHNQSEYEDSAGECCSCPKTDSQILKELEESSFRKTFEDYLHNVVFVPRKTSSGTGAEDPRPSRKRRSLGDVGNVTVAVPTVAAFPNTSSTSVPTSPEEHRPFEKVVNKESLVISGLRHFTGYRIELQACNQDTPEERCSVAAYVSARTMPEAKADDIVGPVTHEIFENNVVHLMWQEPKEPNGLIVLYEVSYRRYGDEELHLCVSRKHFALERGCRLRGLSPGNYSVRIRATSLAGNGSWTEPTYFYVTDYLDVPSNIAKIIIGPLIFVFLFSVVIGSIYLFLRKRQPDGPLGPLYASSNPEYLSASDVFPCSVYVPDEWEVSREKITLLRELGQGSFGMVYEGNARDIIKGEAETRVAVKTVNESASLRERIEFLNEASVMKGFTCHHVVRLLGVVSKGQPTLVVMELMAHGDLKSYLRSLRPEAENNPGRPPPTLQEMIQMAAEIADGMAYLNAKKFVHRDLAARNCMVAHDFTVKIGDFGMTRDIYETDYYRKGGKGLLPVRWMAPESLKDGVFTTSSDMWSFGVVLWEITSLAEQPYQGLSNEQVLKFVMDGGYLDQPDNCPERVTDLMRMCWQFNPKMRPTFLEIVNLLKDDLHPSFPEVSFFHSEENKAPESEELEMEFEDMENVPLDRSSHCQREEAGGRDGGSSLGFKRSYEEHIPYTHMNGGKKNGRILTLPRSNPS
Sequence of CDK8 (human) (P49336 whole entry, looked up): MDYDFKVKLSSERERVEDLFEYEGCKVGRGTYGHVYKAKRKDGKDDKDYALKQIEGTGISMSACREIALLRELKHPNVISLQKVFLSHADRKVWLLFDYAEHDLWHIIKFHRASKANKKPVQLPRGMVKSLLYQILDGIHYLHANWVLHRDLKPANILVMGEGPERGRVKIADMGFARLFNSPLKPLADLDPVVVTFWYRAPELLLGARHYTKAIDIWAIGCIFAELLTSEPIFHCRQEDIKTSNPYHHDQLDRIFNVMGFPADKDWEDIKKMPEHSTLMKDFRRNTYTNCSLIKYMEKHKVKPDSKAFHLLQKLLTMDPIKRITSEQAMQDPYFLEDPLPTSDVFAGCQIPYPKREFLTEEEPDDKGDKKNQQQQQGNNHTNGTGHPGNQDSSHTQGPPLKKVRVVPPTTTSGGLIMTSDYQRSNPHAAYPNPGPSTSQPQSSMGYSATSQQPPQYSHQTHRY
Sequence of LATS2 (human) (Q9NRM7 whole entry, looked up): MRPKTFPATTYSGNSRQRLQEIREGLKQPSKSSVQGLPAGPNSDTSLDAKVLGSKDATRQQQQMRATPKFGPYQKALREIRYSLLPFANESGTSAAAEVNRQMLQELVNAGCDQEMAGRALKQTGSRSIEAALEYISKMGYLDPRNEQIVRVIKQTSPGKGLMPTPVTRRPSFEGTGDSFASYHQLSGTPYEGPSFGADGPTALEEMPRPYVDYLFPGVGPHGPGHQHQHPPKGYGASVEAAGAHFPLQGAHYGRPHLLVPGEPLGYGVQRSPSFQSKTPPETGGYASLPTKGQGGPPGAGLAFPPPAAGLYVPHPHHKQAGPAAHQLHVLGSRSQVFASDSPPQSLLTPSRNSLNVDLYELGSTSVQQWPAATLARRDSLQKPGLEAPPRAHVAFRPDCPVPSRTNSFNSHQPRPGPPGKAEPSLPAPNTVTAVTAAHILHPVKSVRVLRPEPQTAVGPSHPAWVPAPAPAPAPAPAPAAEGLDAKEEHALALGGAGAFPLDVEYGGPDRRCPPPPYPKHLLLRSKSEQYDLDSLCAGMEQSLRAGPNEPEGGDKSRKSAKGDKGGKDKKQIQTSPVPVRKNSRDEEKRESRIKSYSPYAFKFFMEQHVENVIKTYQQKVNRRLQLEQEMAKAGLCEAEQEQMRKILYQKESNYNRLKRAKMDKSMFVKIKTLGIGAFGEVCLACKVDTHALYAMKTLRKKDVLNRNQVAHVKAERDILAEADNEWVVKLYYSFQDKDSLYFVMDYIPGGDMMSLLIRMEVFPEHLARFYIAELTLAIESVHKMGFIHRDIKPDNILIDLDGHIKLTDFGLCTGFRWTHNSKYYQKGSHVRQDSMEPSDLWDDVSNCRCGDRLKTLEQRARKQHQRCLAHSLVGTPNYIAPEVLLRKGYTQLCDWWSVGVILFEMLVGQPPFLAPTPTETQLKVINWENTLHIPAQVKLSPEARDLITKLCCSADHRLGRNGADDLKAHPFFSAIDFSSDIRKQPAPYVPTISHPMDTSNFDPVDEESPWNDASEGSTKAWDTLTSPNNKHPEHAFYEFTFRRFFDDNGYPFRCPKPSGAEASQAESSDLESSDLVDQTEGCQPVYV
Sequence of EPHA4 (human) (P54764 whole entry, looked up): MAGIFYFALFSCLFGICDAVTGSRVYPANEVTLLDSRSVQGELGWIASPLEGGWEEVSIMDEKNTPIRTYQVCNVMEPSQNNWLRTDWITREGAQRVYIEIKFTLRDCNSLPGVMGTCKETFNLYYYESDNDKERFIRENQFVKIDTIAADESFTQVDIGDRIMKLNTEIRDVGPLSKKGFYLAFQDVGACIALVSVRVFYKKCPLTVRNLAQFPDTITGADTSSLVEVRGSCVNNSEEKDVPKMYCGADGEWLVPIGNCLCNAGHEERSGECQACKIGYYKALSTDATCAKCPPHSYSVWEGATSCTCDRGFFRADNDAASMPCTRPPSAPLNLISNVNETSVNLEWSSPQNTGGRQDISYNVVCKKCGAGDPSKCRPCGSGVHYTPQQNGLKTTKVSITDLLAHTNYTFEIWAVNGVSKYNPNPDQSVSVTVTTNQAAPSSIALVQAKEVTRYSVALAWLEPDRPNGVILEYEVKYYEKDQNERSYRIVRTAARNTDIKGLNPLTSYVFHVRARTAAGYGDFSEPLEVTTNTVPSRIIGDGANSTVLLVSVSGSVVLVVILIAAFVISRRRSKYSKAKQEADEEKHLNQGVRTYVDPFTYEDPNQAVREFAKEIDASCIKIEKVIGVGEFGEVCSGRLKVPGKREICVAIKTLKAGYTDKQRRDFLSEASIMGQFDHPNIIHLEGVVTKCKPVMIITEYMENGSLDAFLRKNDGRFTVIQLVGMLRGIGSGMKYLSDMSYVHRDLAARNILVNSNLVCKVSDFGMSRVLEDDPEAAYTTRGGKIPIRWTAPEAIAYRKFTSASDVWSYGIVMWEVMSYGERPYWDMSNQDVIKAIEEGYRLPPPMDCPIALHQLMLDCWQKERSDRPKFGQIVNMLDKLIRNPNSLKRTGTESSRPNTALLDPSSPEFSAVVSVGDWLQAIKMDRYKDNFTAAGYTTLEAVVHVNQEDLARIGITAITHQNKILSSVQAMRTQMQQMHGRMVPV
Sequence of IKBKB (human) (O14920 whole entry, looked up): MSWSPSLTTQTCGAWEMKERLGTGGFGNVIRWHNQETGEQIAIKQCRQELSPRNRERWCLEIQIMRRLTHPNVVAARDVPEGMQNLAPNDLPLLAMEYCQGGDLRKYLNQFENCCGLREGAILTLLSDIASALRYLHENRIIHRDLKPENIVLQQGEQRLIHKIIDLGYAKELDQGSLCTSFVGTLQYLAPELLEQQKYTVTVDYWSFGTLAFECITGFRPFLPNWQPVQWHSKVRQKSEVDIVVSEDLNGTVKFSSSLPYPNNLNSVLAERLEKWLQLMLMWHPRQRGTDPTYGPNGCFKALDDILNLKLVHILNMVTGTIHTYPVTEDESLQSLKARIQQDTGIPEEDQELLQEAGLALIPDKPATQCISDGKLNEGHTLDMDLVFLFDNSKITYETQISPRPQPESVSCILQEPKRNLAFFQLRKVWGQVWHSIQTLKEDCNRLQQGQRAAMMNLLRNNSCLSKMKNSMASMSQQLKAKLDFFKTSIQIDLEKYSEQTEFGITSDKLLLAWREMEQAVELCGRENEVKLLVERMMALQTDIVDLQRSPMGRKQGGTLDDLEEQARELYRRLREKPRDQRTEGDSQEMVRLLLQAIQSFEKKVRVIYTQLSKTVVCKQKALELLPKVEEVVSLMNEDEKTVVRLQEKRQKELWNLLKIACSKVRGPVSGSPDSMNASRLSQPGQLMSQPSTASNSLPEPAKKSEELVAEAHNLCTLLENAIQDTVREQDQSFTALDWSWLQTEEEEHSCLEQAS
Sequence of MST4 (human) (Q9P289 whole entry, looked up): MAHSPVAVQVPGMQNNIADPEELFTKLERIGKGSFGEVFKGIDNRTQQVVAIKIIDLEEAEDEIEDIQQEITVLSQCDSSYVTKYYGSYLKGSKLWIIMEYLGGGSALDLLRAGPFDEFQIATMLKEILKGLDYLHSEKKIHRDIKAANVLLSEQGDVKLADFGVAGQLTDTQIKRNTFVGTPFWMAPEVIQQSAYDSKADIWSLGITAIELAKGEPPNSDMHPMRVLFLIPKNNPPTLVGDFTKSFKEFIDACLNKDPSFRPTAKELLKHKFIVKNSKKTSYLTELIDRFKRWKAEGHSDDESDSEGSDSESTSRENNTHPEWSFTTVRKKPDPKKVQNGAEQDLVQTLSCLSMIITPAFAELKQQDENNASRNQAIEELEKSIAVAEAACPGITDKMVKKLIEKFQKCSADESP

SMILES: CCN1CCN(Cc2ccc(NC(=O)c3ccc(C)c(/C=C/c4cnc(Nc5cc(N6CCNCC6)nc(C)n5)cn4)c3)cc2C(F)(F)F)CC1
- kinase still bound, per cent of control [1]: 18%
- kinase still bound, per cent of control [2]: 100%
- kinase still bound, per cent of control [3]: 100%
- kinase still bound, per cent of control [4]: 69%
- kinase still bound, per cent of control [5]: 100%
- kinase still bound, per cent of control [6]: 100%
- kinase still bound, per cent of control [7]: 29%
- kinase still bound, per cent of control [8]: 3.5%
- kinase still bound, per cent of control [9]: 9.4%
- kinase still bound, per cent of control [10]: 16%
- kinase still bound, per cent of control [11]: 86%
- kinase still bound, per cent of control [12]: 0.85%
- kinase still bound, per cent of control [13]: 27%
- kinase still bound, per cent of control [14]: 7%
- kinase still bound, per cent of control [15]: 100%
- kinase still bound, per cent of control [16]: 100%
- kinase still bound, per cent of control [17]: 34%
- kinase still bound, per cent of control [18]: 0.95%
- kinase still bound, per cent of control [19]: 81%
- kinase still bound, per cent of control [20]: 1.2%
- kinase still bound, per cent of control [21]: 90%
- kinase still bound, per cent of control [22]: 100%
- kinase still bound, per cent of control [23]: 3.6%
- kinase still bound, per cent of control [24]: 65%
- kinase still bound, per cent of control [25]: 0.2%
- kinase still bound, per cent of control [26]: 36%
- kinase still bound, per cent of control [27]: 35%
- kinase still bound, per cent of control [28]: 100%
- kinase still bound, per cent of control [29]: 95%
- kinase still bound, per cent of control [30]: 83%
- kinase still bound, per cent of control [31]: 0.55%
- kinase still bound, per cent of control [32]: 4.6%
- kinase still bound, per cent of control [33]: 23%
- kinase still bound, per cent of control [34]: 0.1%
- kinase still bound, per cent of control [35]: 26%
- kinase still bound, per cent of control [36]: 69%
- kinase still bound, per cent of control [37]: 91%
- kinase still bound, per cent of control [38]: 68%
- kinase still bound, per cent of control [39]: 6.2%
- kinase still bound, per cent of control [40]: 15%
- kinase still bound, per cent of control [41]: 85%
- kinase still bound, per cent of control [42]: 100%

SMILES: COc1cc(N2CCC(N3CCN(C)CC3)CC2)ccc1Nc1ncc(Cl)c(Nc2ccccc2S(=O)(=O)C(C)C)n1
- kinase still bound, per cent of control [1]: 0%
- kinase still bound, per cent of control [2]: 0.5%
- kinase still bound, per cent of control [3]: 40%
- kinase still bound, per cent of control [4]: 0.05%
- kinase still bound, per cent of control [5]: 40%
- kinase still bound, per cent of control [6]: 0.25%
- kinase still bound, per cent of control [7]: 0.4%
- kinase still bound, per cent of control [8]: 40%
- kinase still bound, per cent of control [10]: 30%
- kinase still bound, per cent of control [11]: 1.3%
- kinase still bound, per cent of control [12]: 0.15%
- kinase still bound, per cent of control [13]: 3.3%
- kinase still bound, per cent of control [14]: 1.2%
- kinase still bound, per cent of control [15]: 2.7%
- kinase still bound, per cent of control [16]: 1.8%
- kinase still bound, per cent of control [18]: 40%
- kinase still bound, per cent of control [19]: 0%
- kinase still bound, per cent of control [21]: 25%
- kinase still bound, per cent of control [22]: 1.8%
- kinase still bound, per cent of control [23]: 40%
- kinase still bound, per cent of control [24]: 0%
- kinase still bound, per cent of control [25]: 0%
- kinase still bound, per cent of control [26]: 17%
- kinase still bound, per cent of control [27]: 3.6%
- kinase still bound, per cent of control [28]: 0.3%
- kinase still bound, per cent of control [29]: 40%
- kinase still bound, per cent of control [30]: 0.1%
- kinase still bound, per cent of control [31]: 0.3%
- kinase still bound, per cent of control [32]: 27%
- kinase still bound, per cent of control [33]: 40%
- kinase still bound, per cent of control [34]: 0.1%
- kinase still bound, per cent of control [35]: 11%
- kinase still bound, per cent of control [36]: 30%
- kinase still bound, per cent of control [37]: 4.5%
- kinase still bound, per cent of control [39]: 1.4%
- kinase still bound, per cent of control [40]: 3.4%
- kinase still bound, per cent of control [41]: 3%
- kinase still bound, per cent of control [42]: 0%

SMILES: CCN1CCN(Cc2ccc(NC(=O)c3ccc(C)c(Oc4ccnc5[nH]ccc45)c3)cc2C(F)(F)F)CC1
- kinase still bound, per cent of control [8]: 0.1%
- kinase still bound, per cent of control [9]: 2.2%
- kinase still bound, per cent of control [10]: 5.8%
- kinase still bound, per cent of control [12]: 15%
- kinase still bound, per cent of control [14]: 28%
- kinase still bound, per cent of control [17]: 0.45%
- kinase still bound, per cent of control [18]: 24%
- kinase still bound, per cent of control [20]: 0.8%
- kinase still bound, per cent of control [23]: 3.9%
- kinase still bound, per cent of control [24]: 30%
- kinase still bound, per cent of control [26]: 13%
- kinase still bound, per cent of control [34]: 0.45%
- kinase still bound, per cent of control [38]: 20%
- kinase still bound, per cent of control [39]: 4.6%
- kinase still bound, per cent of control [40]: 6.2%
